According to US12077503B2, “Substituted cyclic amides and their use as herbicides” (FMC CORPORATION, priority 2015, dated 2024):

Key:
Type in all cases: in vivo
[1] = tested on: barnyardgrass (Echinochloa crus-galli); experiment: Test B flooded paddy test; settings: Flood, 250 g ai/ha; 0 to 100 scale where 0 is no effect and 100 is complete control; 13 to 15 d
Summary of the method: (§1)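 Percent control, visually estimated after 13–15 d in the greenhouse on a 0–100 basis, compares treated pots with untreated ones; compound was put into paddy water 3 cm above the soil when plants had two leaves.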

[2] = tested on: ducksalad (Heteranthera limosa); experiment: Test B flooded paddy test; settings: Flood, 250 g ai/ha; 0 to 100 scale where 0 is no effect and 100 is complete control; 13 to 15 d
Summary of the method: as §1

rice (Oryra sativa) = experiment: Test B flooded paddy test; settings: Flood, 250 g ai/ha; 0 to 100 scale where 0 is no effect and 100 is complete control; 13 to 15 d
Summary of the method: as §1

[3] = tested on: sedge, umbrella (small-flower umbrella sedge, Cyperus difformis); experiment: Test B flooded paddy test; settings: Flood, 250 g ai/ha; 0 to 100 scale where 0 is no effect and 100 is complete control; 13 to 15 d
Summary of the method: as §1

[4] = tested on: Panicum, fall (fall Panicum, Panicum dichotomiflorum); experiment: Test E preemergence; settings: scale 0 to 100
Summary of the method: (§2)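 Compound in non-phytotoxic solvent with surfactant is applied preemergence to silt loam soil after sowing, or postemergence to plants 2 to 18 cm tall in peat-based medium. Plants grow in a greenhouse for 14 to 21 d. Each species is then compared with controls and scored visually, 0 (no effect) to 100 (complete control).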

[5] = tested on: arrowleaf Sida (Sida rhombifolia); experiment: Test E preemergence; settings: scale 0 to 100
Summary of the method: as §2

[6] = tested on: beggarticks (hairy beggarticks, Bidens pilosa); experiment: Test E preemergence; settings: scale 0 to 100
Summary of the method: as §2

[7] = tested on: foxtail, green (green foxtail, Setaria viridis); experiment: Test E preemergence; settings: scale 0 to 100
Summary of the method: as §2

[8] = tested on: johnsongrass (Sorghum halepense); experiment: Test E preemergence; settings: scale 0 to 100
Summary of the method: as §2

[9] = tested on: lambsquarters (Chenopodium album); experiment: Test E preemergence; settings: scale 0 to 100
Summary of the method: as §2

[10] = tested on: morningglory (Ipomoea coccinea); experiment: Test E preemergence; settings: scale 0 to 100
Summary of the method: as §2

[11] = tested on: nightshade (eastern black nightshade, Solanum ptycanthum); experiment: Test E preemergence; settings: scale 0 to 100
Summary of the method: as §2

[12] = tested on: pigweed, palmer (palmer pigweed, Amaranthus palmeri); experiment: Test E preemergence; settings: scale 0 to 100
Summary of the method: as §2

[13] = tested on: ragweed (common ragweed, Ambrosia elatior); experiment: Test E preemergence; settings: scale 0 to 100
Summary of the method: as §2

[14] = tested on: ryegrass, Italian (Italian ryegrass, Lolium multiflorum); experiment: Test E preemergence; settings: scale 0 to 100
Summary of the method: as §2

soybean (Glycine max) = experiment: Test E preemergence; settings: scale 0 to 100
Summary of the method: as §2

[15] = tested on: velvetleaf (Abutilon theophrasti); experiment: Test E preemergence; settings: scale 0 to 100
Summary of the method: as §2

In the case of `CN1C[C@H](c2ccc(F)c(F)c2)[C@@H](C(=O)Nc2ccccc2F)C1=O` [Compound 596, (3S,4S)-4-(3,4-difluorophenyl)-N-(2-fluorophenyl)-1-methyl-2-oxo-3-pyrrolidinecarboxamide], the “Plant response rating, Barnyardgrass” value [1] is reported as 95, the “Plant response rating, Ducksalad” value [2] is reported as 100 and the “Plant response rating, Rice” value (rice (Oryra sativa)) is reported as 0. For the same molecule, the “Plant response rating, Sedge, Umbrella” value [3] was 0, the “Plant response rating: Panicum, Fall” value ([4]; 31 g ai/ha) was 0 and the “Plant response rating: Panicum, Fall” value ([4]; 62 g ai/ha) was 0. For the same molecule, the “Plant response rating: Panicum, Fall” value ([4]; 125 g ai/ha) was 0, the “Plant response rating: Panicum, Fall” value ([4]; 250 g ai/ha) was 90 and the “Plant response rating: Arrowleaf Sida” value ([5]; 31 g ai/ha) was 35. The “Plant response rating: Arrowleaf Sida” value ([5]; 62 g ai/ha) was 30, the “Plant response rating: Arrowleaf Sida” value ([5]; 125 g ai/ha) was 30 and the “Plant response rating: Arrowleaf Sida” value ([5]; 250 g ai/ha) was 50. For the same molecule, the “Plant response rating: Beggarticks” value ([6]; 31 g ai/ha) was 0, the “Plant response rating: Beggarticks” value ([6]; 62 g ai/ha) was 0 and the “Plant response rating: Beggarticks” value ([6]; 125 g ai/ha) was 0. For the same molecule, the “Plant response rating: Beggarticks” value ([6]; 250 g ai/ha) was 0, the “Plant response rating: Foxtail, Green” value ([7]; 31 g ai/ha) was 95 and the “Plant response rating: Foxtail, Green” value ([7]; 62 g ai/ha) was 95. For the same molecule, the “Plant response rating: Foxtail, Green” value ([7]; 125 g ai/ha) was 95, the “Plant response rating: Foxtail, Green” value ([7]; 250 g ai/ha) was 95 and the “Plant response rating: Johnsongrass” value ([8]; 31 g ai/ha) was 0. The “Plant response rating: Johnsongrass” value ([8]; 62 g ai/ha) was 0, the “Plant response rating: Johnsongrass” value ([8]; 125 g ai/ha) was 0 and the “Plant response rating: Johnsongrass” value ([8]; 250 g ai/ha) was 35. For the same molecule, the “Plant response rating: Lambsquarters” value ([9]; 31 g ai/ha) was 25, the “Plant response rating: Lambsquarters” value ([9]; 62 g ai/ha) was 25 and the “Plant response rating: Lambsquarters” value ([9]; 125 g ai/ha) was 80. For the same molecule, the “Plant response rating: Lambsquarters” value ([9]; 250 g ai/ha) was 90, the “Plant response rating: Morningglory” value ([10]; 31 g ai/ha) was 0 and the “Plant response rating: Morningglory” value ([10]; 62 g ai/ha) was 0. The “Plant response rating: Morningglory” value ([10]; 125 g ai/ha) was 0, the “Plant response rating: Morningglory” value ([10]; 250 g ai/ha) was 0 and the “Plant response rating: Nightshade” value ([11]; 31 g ai/ha) was 0. The “Plant response rating: Nightshade” value ([11]; 62 g ai/ha) was 0, the “Plant response rating: Nightshade” value ([11]; 125 g ai/ha) was 0 and the “Plant response rating: Nightshade” value ([11]; 250 g ai/ha) was 60. For the same molecule, the “Plant response rating: Pigweed, Palmer” value ([12]; 31 g ai/ha) was 0, the “Plant response rating: Pigweed, Palmer” value ([12]; 62 g ai/ha) was 0 and the “Plant response rating: Pigweed, Palmer” value ([12]; 125 g ai/ha) was 0. The “Plant response rating: Pigweed, Palmer” value ([12]; 250 g ai/ha) was 40, the “Plant response rating: Ragweed” value ([13]; 31 g ai/ha) was 0 and the “Plant response rating: Ragweed” value ([13]; 62 g ai/ha) was 0. The “Plant response rating: Ragweed” value ([13]; 125 g ai/ha) was 25, the “Plant response rating: Ragweed” value ([13]; 250 g ai/ha) was 50 and the “Plant response rating: Ryegrass, Italian” value ([14]; 31 g ai/ha) was 0. For the same molecule, the “Plant response rating: Ryegrass, Italian” value ([14]; 62 g ai/ha) was 0, the “Plant response rating: Ryegrass, Italian” value ([14]; 125 g ai/ha) was 35 and the “Plant response rating: Ryegrass, Italian” value ([14]; 250 g ai/ha) was 50. The “Plant response rating: Soybean” value (soybean (Glycine max); 31 g ai/ha) was 0, the “Plant response rating: Soybean” value (soybean (Glycine max); 62 g ai/ha) was 0 and the “Plant response rating: Soybean” value (soybean (Glycine max); 125 g ai/ha) was 0. The “Plant response rating: Soybean” value (soybean (Glycine max); 250 g ai/ha) was 0, the “Plant response rating: Velvetleaf” value ([15]; 31 g ai/ha) was 0 and the “Plant response rating: Velvetleaf” value ([15]; 62 g ai/ha) was 0. The “Plant response rating: Velvetleaf” value ([15]; 125 g ai/ha) was 0 and the “Plant response rating: Velvetleaf” value ([15]; 250 g ai/ha) was 35.
